Data from US20160214958A1, “COMPOUNDS AND USE FOR TREATING CANCER” (GLIONOVA AB, priority 2013, published 2016).
Like-named read-outs stand apart in the source and are kept apart here. One block for each molecule: values may come before it.

Key:
U87 glioma cell = settings: at concentrations of 10 micromolar; cited from earlier work
[1] = system: glioma stem cell line U3013; test: In vitro cancer cell and CSC viability assay (ATP quantification, CellTiterGlo); type: cell-based, human
Protocol: The ability of Examples S1-S23 to selectively induce cytotoxicity in glioma/glioblastoma cancer cells or glioma/glioblastoma cancer stem cells was determined by quantification of ATP production in glioma stem cell line U3013 in the presence of using CellTiterGlo reagent (Promega). Cells were exposed to compound in serial dilution in the range 1 nM to 50 µM for 24 hours and viability assessed with respect to negative control (dmso, no cell death) and positive control (staurosporine, full cell death). […] The EC50 of S10 remained largely similar at 2, 3 and 4 days of incubation. […] The individual isomers (S21-S23) of racemic S10 were evaluated in order to determine the enantiospecific pharmacology of the individual isomers.
Negative (100% DMSO) and positive (10 mM S10 in 100% DMSO) controls were placed in rows 1-4 and 5-8, respectively, of column 12. The wells were diluted with 190 μl of the corresponding growth media and 5 μl of each well of compound solution transferred to quadruplicate wells of a sterile 384-well black clear bottom plate (BD Falcon) containing GSC at 70% confluency in 45 μl growth media. The plate was incubated for 24 hours, after which the plate was removed from the incubator and each well imaged in bright-field using an Operetta Imaging system (PerkinElmer) at 37° C. and 5% CO2 to determine vacuole accumulation at each concentration. The plate was then allowed to cool to room temperature and each well treated with 25 μl freshly CellTiterGlo (Promega) reagent. The plate was shaken for 15 minutes and luminescence measured using a Victor3 (Perkin Elmer) microtiterplate reader. Total luminescence was normalized relative to control and curve fitting performed using GraphPad Prism (v6.02) software.

[2] = Pharmacokinetic evaluation of Vacquinol-1 stereoisomers, plasma and brain; type: in vivo, NMRI (SR/RS) or BALB/c (Vrac) mice
Protocol: The pharmacokinetics of Vacquinol-1 (racemic), Vacquinol-1RS and Vacquinol-1SR, were determined in NMRI (SR/RS) or BALB/c (Vrac) mice following single intravenous (i.v.) or per oral (p.o) administration of 2 or 20 mg/kg Vacquinol-1, respectively. Blood and brain samples were taken from animals at the following nominal time points: 15, 30, and 60 minutes, and 2, 4, 6, 8, 24, 48, 72 and 144 hours after dosing (n=3/time-point). Bioanalytical quantification of Vacquinol-1 was analysed in plasma and brain samples by a UPLC-MS/MS.
Pharmacokinetics were calculated by non-compartmental analysis (NCA) from composite (mean) profiles. Nominal sampling times and dose levels have been used for the NCA calculations.

[3] = system: glioma stem cell line U3013; test: In vitro cancer cell and CSC viability assay (ATP quantification, CellTiterGlo); type: cell-based; settings: Homo sapiens; 3000 cells/cm2, after 24 hours; read-out: EC50, viability of GSCs

SMILES: O[C@@H](c1cc(C(F)(F)F)nc2c(C(F)(F)F)cccc12)[C@H]1CCCCN1 (racemic) [mefloquine, (2,8-bis(trifluoromethyl)quinolin-4-yl)(piperidin-2-yl)methanol, reference compound]
reduction of U87 glioma cell viability (U87 glioma cell): roughly 50%
IC95 for cell death ([1]; glioblastoma cells (U3013)): 25.2 µM

AUClast Plasma ([2]; 2 mg/kg i.v., mice): 14100 ng·h/mL
Cmax Brain ([2]; 2 mg/kg i.v., mice): 777 ng/mL
tlast Brain ([2]; 2 mg/kg i.v., mice): 72 h
tlast Plasma ([2]; 2 mg/kg i.v., mice): 72 h
AUClast Brain ([2]; 20 mg/kg p.o., mice): 157000 ng·h/mL
AUClast Plasma ([2]; 20 mg/kg p.o., mice): 183000 ng·h/mL
Cmax Brain ([2]; 20 mg/kg p.o., mice): 1490 ng/mL
tlast Brain ([2]; 20 mg/kg p.o., mice): 144 h
tlast Plasma ([2]; 20 mg/kg p.o., mice): 144 h
Kp ([2]; NMRI (single stereoisomers SR/RS), BALB/c (racemate), mouse, brain and plasma, 20 mg/kg, after oral dosing, read-out: Cmax exposures ratio (Cmax(brain)/Cmax(plasma))): 0.7
AUC(0-t) ([2]; NMRI (single stereoisomers SR/RS), BALB/c (racemate), mouse, brain, iv, 2 mg/kg i.v., mice, read-out: AUClast Brain): 9050 ng·h/mL
EC50 ([1]; Homo sapiens, U3013, 24 hours exposure, read-out: In vitro efficacy (viability) EC50): 2.67 µM
SMILES: O[C@@H](c1cc(-c2ccc(Cl)cc2)nc2ccccc12)[C@H]1CCCCN1 [Compound S21, (S)-(2-(4-chlorophenyl)quinolin-4-yl)((R)-piperidin-2-yl)methanol]
potency with respect to S10 (viability) ([1]; individual isomers of racemic S10): equal or increased potency

EC50 [3]: 139 µM
SMILES: Cn1nnc2c(C(N)=O)ncn2c1=O [temozolomide, reference compound]
